Results published in US20220273732A1, “PROBIOTIC THERAPIES FOR SOCIAL DEFICIT AND STRESS RESPONSE” (California Institute of Technology, priority 2021, published 2022).
Entries after “also recorded” stand apart in the source; their conditions may differ. No end group written: not given here.

What was measured:
mice [1] = assay: Reciprocal social interaction (RSI) test, social activity; format: in vivo; conditions: for social activity of ABX adrenalectomized mice: under drug treatment, compared to ABX sham and vehicle sham mice
corticosterone = assay: Serum corticosterone measurement (Corticosterone EIA Kit); format: in vivo, mice; conditions: for serum corticosterone levels: GF mice, 50 mg/kg i.p., vs CMC vehicle, 50 mg/kg; for serum corticosterone: CNO i.p.
Description: Whole blood was collected either by cardiac puncture or retro-orbital bleeding, and placed into Micro tube Z gel (41.1378.005; Sarstedt). Serum was separated by centrifuge at 10,000×g for five minutes, and stored at −80° C. until use. Corticosterone levels were detected by the Corticosterone EIA Kit (K014-H5; Arbor Assays) using the manufacturer's protocol. Due to the nature of the circadian rhythm for the corticosterone, the blood sample was collected during 1:00-5:00 pm on each day of experiment.

mice [2] = assay: Non-social activity (self-grooming, digging, rearing) in the RSI paradigm; format: in vivo
Description: Minimal aggressive behaviors were observed. Each novel mouse was used for testing up to two times per day. Subject mice undergoing repeated testing throughout the experiment were confronted with a novel mouse each time. The following social investigation behaviors constituted “social activity” and were scored as such: anogenital sniffing, nose-nose sniffing, active approach, and push under/crawl. The following solitary behaviors during social interaction constituted “non-social activity” and were scored as such: self-grooming, digging, and rearing. All behaviors were analyzed using of ETHOM software (Shih, 2000).
Novel cage behavior is a widely-used test for measuring the non-social activity in a novel environment. The subject mouse was placed in an unused, sterilized cage. Non-social activity was video recorded for 5 minutes. The following solitary behaviors during social interaction constituted “non-social activity” and were scored as such: self-grooming, digging, and rearing. All behaviors were analyzed using of ETHOM software (Shih, 2000).

c-Fos = c-Fos staining of brain sections after social interaction; format: in vivo; conditions: ABX hM4Di mice, CNO
Description: All brain samples for c-Fos expression were collected one hour after the reciprocal social interaction test. Mice were anesthetized by intraperitoneal injection with a mixture of 100 mg/kg ketamine and 10 mg/kg xylazine. The mice were then perfused via the cardiovascular system with PBS followed by 4% paraformaldehyde (Electron Microscopy Sciences). Brains were removed and post-fixed in 4% paraformaldehyde 3-5 days at 4° C. The brains were kept in PBS with 0.02% sodium azide at 4° C. until sectioning.
The brains were embedded in 4% UltraPure low melting point agarose (ThermoFisher) and were coronally sectioned by vibratome (VT1000S; Leica) at a thickness of 50 μm, with the exception of the brain sections for FIGS. 1D-1F that were sectioned at a thickness of 100 μm. Brain sections of 50 μm were collected and stained every 0.15 mm. Brain sections of 100 μm were collected sequentially and stained entirely. The brain sections were stored as free-floating in PBS with 0.02% sodium azide at 4° C. until staining. […] The next day, sections were incubated with fluorescence-conjugated secondary antibody for 1.5-2 hours at room temperature. […] The fluorescence-conjugated secondary antibodies were donkey anti-goat (1:1000), donkey anti-rabbit (1:1000), and donkey anti-mouse (1:1000) (ThermoFisher Scientific). […]

CC(C)(C(=O)c1cccnc1)c1cccnc1 [metyrapone]
social activity (mice [1]; GF mice, 50 mg/kg i.p., 40 min before test, vs CMC vehicle): significantly increased
social activity of ABX sham mice compared to vehicle sham mice (mice [1]; during drug treatment i.p. (RU-486 40 mg/kg, MET 50 mg/kg)): increased
social activity of ABX adrenalectomized mice (mice [1]): elevated
serum corticosterone levels (corticosterone; after social interaction): effectively reduced
serum corticosterone levels (corticosterone; after social interaction, listed as MET): reduction

C[C@]12C[C@H](O)[C@H]3[C@@H](CCC4=CC(=O)CC[C@@]43C)[C@@H]1CC[C@@H]2C(=O)CO [corticosterone]
social behavior (mice [1]; acute injection, 10 mg/kg i.p. on two consecutive days, all groups (vehicle sham, ABX sham, ABX ADX)): impaired
social activity (mice [1]; injection into the DG and BNST of SPF mice (corticosterone 65 μM, dexamethasone 20 mM)): decreased

CRF: synthetic corticotropin-releasing factor (SEEPPISLDLTFHLLREVLEMARAEQLAQQAHSNRKLMEII; ends and bridges not checked; UniProt P06850 154-194, looked up)
social activity toward a novel mouse (mice [1]; injection into the PVN of SPF mice (210 μM or 42 μM, 450 nL per hemisphere)): dramatically reduced
non-social activity (mice [2]; high levels of CRF into PVN of SPF mice): reversed these changes
non-social activity (mice [2]; low levels of CRF into PVN of SPF mice): increased

C[N+]1([O-])CCN(C2=Nc3cc(Cl)ccc3Nc3ccccc32)CC1 [CNO, clozapine N-oxide]
social behavior (mice [1]; ABX Crh-ires-Cre mice with hM4Di in PVN, CNO i.p. 2-3 mg/kg): dramatically increased
social behavior (mice [1]; ABX mice receiving control virus (mCherry) in PVN, CNO i.p.): no change
social behavior (mice [1]; SPF hM3Dq mice (PVN), CNO i.p.): significantly decreased
c-Fos expression in the BNST or DG (c-Fos): did not alter
c-Fos staining in the PVN (c-Fos): decreased
non-social activity (mice [2]; SPF hM3Dq mice, chemogenetic activation of PVN CRH neurons): increased
serum corticosterone (corticosterone; ABX hM4Di mice (PVN), after social interaction): decreased; also recorded: reduction
serum corticosterone (corticosterone; SPF hM3Dq mice (PVN)): increased

CC#C[C@]1(O)CC[C@H]2[C@@H]3CCC4=CC(=O)CCC4=C3[C@@H](c3ccc(N(C)C)cc3)C[C@@]21C [RU-486, mifepristone]
social activity (mice [1]; ABX control mice vs ABX Nr3cl^ΔDG or Nr3cl^ΔBNST mice, 40 mg/kg i.p.): enhanced social activity only in ABX control mice
social activity of ABX adrenalectomized mice (mice [1]): elevated
